Earlier results, collected in patent publication US20120252835A1, “STABLE TEMSIROLIMUS COMPOSITION AND PROCESS OF PREPARING SAME” (ASTRON RESEARCH LIMITED, priority 2011, published 2012).

In the case of “Rapamycin, 42-[3-hydroxy-2-(hydroxymethyl)-2-methylpropanoate] [Temsirolimus]”, the “Solubility in alcohols acceptable for parenteral administration” value (ethanol, propylene glycol, polyethylene glycol and the likes) is listed as “soluble” and the Solubility in water (water) is listed as “practically insoluble”.
